Data: patent publication US20170312221A1, “PHARMACEUTICAL PREPARATION AND METHOD OF ITS PRODUCTION AND USE” (priority 2014, published 2017)

Columns and labels:
Test in all cases: minimum inhibitory concentration
Assay type in all cases: cell-based
Proteus vulgaris X = test system: Proteus vulgaris X
[1] = test system: Staphylococcus aureus ATCC 25923
[2] = test system: Streptococcus pyogenes 421
[3] = test system: Escherichia coli NTCT 10418

With `C/C(=C\C(=O)OCCCCCCCCC(=O)O)C[C@@H]1OC[C@H](C[C@@H]2O[C@H]2[C@@H](C)[C@H](C)O)[C@@H](O)[C@H]1O` [Mupirocin] the “Minimum inhibitory concentration (MIC) Proteus vulgaris X” value (Proteus vulgaris X) was 64, the “Minimum inhibitory concentration (MIC) Staphylococcus aureus ATCC 25923” value [1] was 0.25 and the “Minimum inhibitory concentration (MIC) Streptococcus pyogenes 421” value [2] was 0.12. For the same compound, the “Minimum inhibitory concentration (MIC) Escherichia coli NTCT 10418” value [3] was 128.
